Test results from PMC7708446, “^18F-meta-fluorobenzylguanidine (^18F-mFBG) to monitor changes in norepinephrine transporter expression in response to therapeutic intervention in neuroblastoma models” (Scientific Reports, 2020).

Key:
[1] = Biodistribution and PET statements pooled over Kelly and SK-N-BE(2)C xenograft-bearing mice; type: in vivo; details: 1 h p.i.
Procedure: When the tumours reached approximately 100–200 mm^3, mice were anaesthetised with an isoflurane/O2 mixture (1.5–2.0% v/v) and intravenously injected with either ^18F-mFBG (~ 7.5 MBq) or ^123I-mIBG (~ 20 MBq). Mice were then imaged using an Albira PET/SPECT/CT scanner (Bruker, Coventry, UK). […] Acquisition, reconstruction and image analysis were performed as described previously. Following the final scan, the mice were sacrificed and the major organs were excised, weighed and their associated radioactivity was measured using a γ-counter. Biodistribution and image quantification were expressed as a percentage of injected dose per gram of tissue (%ID/g), whereby 1 cm^3 on PET acquisitions were assumed to equal 1 g (n ≥ 3 mice ± SD).

Kelly xenografts = assay: PET quantification of tumour uptake, Kelly xenografts; type: in vivo, mice
Procedure: (§1) When the tumours reached approximately 100–200 mm^3, mice were anaesthetised with an isoflurane/O2 mixture (1.5–2.0% v/v) and intravenously injected with either ^18F-mFBG (~ 7.5 MBq) or ^123I-mIBG (~ 20 MBq). Mice were then imaged using an Albira PET/SPECT/CT scanner (Bruker, Coventry, UK). Whole body PET static images were acquired after 1 and 4 h post-injection (p.i.) for 10 min with an energy window of 358 to 664 keV followed by CT acquisition. Acquisition, reconstruction and image analysis were performed as described previously. Following the final scan, the mice were sacrificed and the major organs were excised, weighed and their associated radioactivity was measured using a γ-counter. Biodistribution and image quantification were expressed as a percentage of injected dose per gram of tissue (%ID/g), whereby 1 cm^3 on PET acquisitions were assumed to equal 1 g (n ≥ 3 mice ± SD).

SK-N-BE(2)C xenografts = assay: PET quantification of tumour uptake, SK-N-BE(2)C xenografts; type: in vivo, mice
Procedure: as §1

NET-1 = biological target: T1, NET-1 (Homo sapiens, UniProt P23975); assay: ^18F-mFBG / ^123I-mIBG uptake in NB cell lines with and without desipramine; type: cell-based; details: 1 h at 37 °C, rank among Kelly, SK-N-SH, NBLS
T1 construct: SK-N-SH, SK-N-BE(2)C, Kelly, NBLS human NB cell lines; endogenous in cells; host or cells: SK-N-SH, SK-N-BE(2)C, Kelly, NBLS human neuroblastoma cell lines
T1 sequence (P23975 whole entry): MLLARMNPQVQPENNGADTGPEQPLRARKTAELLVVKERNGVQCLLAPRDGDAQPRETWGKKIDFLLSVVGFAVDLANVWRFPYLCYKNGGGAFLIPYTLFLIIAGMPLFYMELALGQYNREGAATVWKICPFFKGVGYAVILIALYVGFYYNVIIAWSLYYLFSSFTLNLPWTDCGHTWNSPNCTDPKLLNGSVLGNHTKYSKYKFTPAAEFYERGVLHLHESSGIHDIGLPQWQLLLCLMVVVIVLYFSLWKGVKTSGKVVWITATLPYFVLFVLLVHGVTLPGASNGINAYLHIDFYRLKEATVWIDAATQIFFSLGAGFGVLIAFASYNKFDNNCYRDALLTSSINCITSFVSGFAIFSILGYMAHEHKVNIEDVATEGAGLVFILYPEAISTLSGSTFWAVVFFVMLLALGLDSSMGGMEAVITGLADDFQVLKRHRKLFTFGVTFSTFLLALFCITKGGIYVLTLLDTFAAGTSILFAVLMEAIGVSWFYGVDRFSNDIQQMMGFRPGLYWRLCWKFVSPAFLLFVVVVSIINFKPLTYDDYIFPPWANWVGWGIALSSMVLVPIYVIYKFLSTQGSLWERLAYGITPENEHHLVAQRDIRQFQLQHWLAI
Text: Figure 1 (a) Simplified radiosynthesis scheme of ^18F-mFBG by copper-mediated deborylation. (b) Total NET-1 protein expression in selected NB cell lines determined by Western blot. Full length blots are presented in Supplementary Figure WB1. […] Data are presented as mean ± SEM, n ≥ 2 per group, performed in triplicate. Graphs are generated using GraphPad Prism (v 8.4.1), https://www.graphpad.com.
For each cell line the cell-associated radioactivity was normalised to the number of cells and then each group was presented as a percentage of the signal acquired for SK-N-BE(2)C cells (mean of n = 3 independent experiments performed in triplicate ± SEM).

Compound: N=C(N)NCc1cccc([18F])c1 [^18F-mFBG, ^18F-meta-fluorobenzylguanidine]
- radiotracer uptake, brown adipose tissue (BAT) [1]: > 7.0 %ID/g
- radiotracer uptake, heart [1]: > 12.0 %ID/g
- radiotracer uptake, small intestine [1]: ~ 8.0 %ID/g
- PET tumour uptake (Kelly xenografts; 1 h p.i., n = 9): 1.10 ± 0.34 %ID/g
- PET tumour uptake (Kelly xenografts; 4 h p.i., n = 5): 0.65 ± 0.29 %ID/g
- PET tumour uptake (SK-N-BE(2)C xenografts; 1 h p.i., n = 21): 2.46 ± 0.71 %ID/g
- PET tumour uptake (SK-N-BE(2)C xenografts; 4 h p.i., n = 15): 3.88 ± 1.15 %ID/g
- cell-associated radioactivity, SK-N-BE(2)C (NET-1): greatest uptake
- cell-associated radioactivity, Kelly (NET-1; SK-N-BE(2)C): least uptake
